Test results taken from patent EP3057951B1, “METHYLENE LINKED QUINOLINYL MODULATORS OF ROR-GAMMA-T” (Janssen Pharmaceutica NV, priority 2013, dated 2015).
Counter-ions that a name gives are not always drawn.

Biological target: T1, wild type human RORγt LBD (Homo sapiens, UniProt P51449)
T1 construct: expressed in transfected cells; host or cells: HEK293T
T1 sequence (P51449 258-518): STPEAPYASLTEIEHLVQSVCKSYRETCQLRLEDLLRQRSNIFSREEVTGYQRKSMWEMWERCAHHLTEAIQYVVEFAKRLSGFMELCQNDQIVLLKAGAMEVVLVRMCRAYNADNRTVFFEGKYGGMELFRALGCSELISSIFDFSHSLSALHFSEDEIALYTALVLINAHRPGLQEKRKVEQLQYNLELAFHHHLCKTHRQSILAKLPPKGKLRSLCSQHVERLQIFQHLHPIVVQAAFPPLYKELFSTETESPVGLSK
Experiment: RORγt (LBD) Reporter Assay (GAL4-luciferase, HEK293T cells)
Format: cell-based
Settings: 6 µM compound concentration; 6 µM

Q: With COc1nc2ccc(C(O)(c3cnnn3C)c3cnc(C)n3C)cc2c(Cl)c1Cc1ccc(F)cc1 (single isomer, unassigned) [Example 65c] as the molecule, how does the “RORγt (LBD) Reporter Assay, % inhibition @ 6 µM” value read?
A: 81%

Biological target: T2, wild type human RORγt ligand binding domain (RORyt LBD) (Homo sapiens, UniProt P51449)
T2 construct: His-tag (N); TurboTEV protease cleavage site (ENLYFQG) (N); made in house; host or cells: E. coli (pHIS1, modified pET vector)
T2 sequence (P51449 258-518): T1 sequence (P51449 258-518)
Experiment: RORγt ThermoFluor assay (thermal shift, binding affinity KD)
Settings: not given

Q: With COc1nc2ccc(C(O)(c3cnc(C)n3C)C3CCOCC3)cc2c(Cl)c1Cc1ccc(C(F)(F)F)cc1 (single isomer, unassigned) [Example 86c, (4-Chloro-2-methoxy-3-(4-(trifluoromethyl)benzyl)quinolin-6-yl)(1,2-dimethyl-1H-imidazol-5-yl)(tetrahydro-2H-pyran-4-yl)methanol] as the molecule, how does the Kd read?
A: 0.06 nM

Q: How did the Kd turn out when CC(=O)N1CC(C(O)(c2ccc3nc(C)c(Cc4ccc(C(F)(F)F)cc4)c(Cl)c3c2)c2cnnn2C)C1 (single isomer, unassigned) [Example 32c, 1-(3-((4-Chloro-2-methyl-3-(4-(trifluoromethyl)benzyl)quinolin-6-yl)(hydroxy)(1-methyl-1H-1,2,3-triazol-5-yl)methyl)azetidin-1-yl)ethanone] was run?
A: 1.3 nM

Q: With COc1nc2ccc(C(O)(c3ccc(C)nc3C)c3cnc(C)n3C)cc2c(Cl)c1Cc1ccc(C(F)(F)F)nc1 (single isomer, unassigned) [Example 42c, (4-Chloro-2-methoxy-3-((6-(trifluoromethyl)pyridin-3-yl)methyl)quinolin-6-yl)(1,2-dimethyl-1H-imidazol-5-yl)(2,6-dimethylpyridin-3-yl)methanol] as the molecule, how does the Kd read?
A: 0.18 nM

Q: Which Kd does the source give for Cc1nc2ccc(C(O)(c3cnnn3C)C3CN(C(=O)OC(C)(C)C)C3)cc2c(Cl)c1Cc1ccc(C(F)(F)F)cc1 (centres unmarked) [Example 31, tert-Butyl 3-((4-chloro-2-methyl-3-(4-(trifluoromethyl)benzyl)quinolin-6-yl)(hydroxy)(1-methyl-1H-1,2,3-triazol-5-yl)methyl)azetidine-1-carboxylate] here?
A: 0.79 nM

Q: How did the Kd turn out when COc1nc2ccc(C(O)(c3ccc(C(F)(F)F)nc3)c3cnnn3C)cc2c(Cl)c1Cc1ccc(C(F)(F)F)cc1 (single isomer, unassigned) [Example 75b, (4-Chloro-2-methoxy-3-(4-(trifluoromethyl)benzyl)quinolin-6-yl)(1-methyl-1H-1,2,3-triazol-5-yl)(6-(trifluoromethyl)pyridin-3-yl)methanol] was run?
A: 6.8 nM

Q: COc1nc2ccc(C(O)(c3cnnn3C)C3CN(C)C3)cc2c(Cl)c1Cc1ccc(C(F)(F)F)cc1 (single isomer, unassigned) [Example 90c, (4-Chloro-2-methoxy-3-(4-(trifluoromethyl)benzyl)quinolin-6-yl)(1-methyl-1H-1,2,3-triazol-5-yl)(1-methylazetidin-3-yl)methanol] was tested. Which Kd did it give?
A: 3.4 nM

Q: CCc1nc2ccc(C(O)(c3ccccc3)C3CCN(C(C)=O)CC3)cc2c(Cl)c1Cc1ccc(-n2cccn2)cc1 (centres unmarked) [Example 35, 1-(4-((3-(4-(1H-Pyrazol-1-yl)benzyl)4-chloro-2-ethylquinolin-6-yl)(hydroxy)(phenyl)methyl)piperidin-1-yl)ethanone] was tested. Which Kd did it give?
A: 3 nM

Q: How did the Kd turn out when CC(=O)N1CCC(C(O)(c2ccccc2)c2ccc3nc(C)c(Cc4ccc(C(F)(F)F)cc4)c(Cl)c3c2)CC1 (single isomer, unassigned) [Example 27c, 1-(4-((4-Chloro-2-methyl-3-(4-(trifluoromethyl)benzyl)quinolin-6-yl)(hydroxy)(phenyl)methyl)piperidin-1-yl)ethanone] was run?
A: 14 nM

Q: How did the Kd turn out when Cc1nc2ccc(C(O)(c3ccc(C(F)(F)F)nc3)c3cncn3C)cc2c(Cl)c1Cc1ccc(C(F)(F)F)cc1 (single isomer, unassigned) [Example 26c, (4-Chloro-2-methyl-3-(4-(trifluoromethyl)benzyl)quinolin-6-yl)(1-methyl-1H-imidazol-5-yl)(6-(trifluoromethyl)pyridin-3-yl)methanol] was run?
A: 0.77 nM

Q: COc1nc2ccc(C(O)(c3cnnn3C)C3CN(C)C3)cc2c(Cl)c1Cc1ccc(C(F)(F)F)cc1 (single isomer, unassigned) [Example 90b, (4-Chloro-2-methoxy-3-(4-(trifluoromethyl)benzyl)quinolin-6-yl)(1-methyl-1H-1,2,3-triazol-5-yl)(1-methylazetidin-3-yl)methanol] was tested. Which Kd did it give?
A: 580 nM

Q: Which Kd does the source give for COc1nc2ccc(C(O)(c3ccc(C)nc3C)c3cnc(C)n3C)cc2c(Cl)c1Cc1ccc(C(F)(F)F)cc1 (single isomer, unassigned) [Example 57b, (4-Chloro-2-methoxy-3-(4-(trifluoromethyl)benzyl)quinolin-6-yl)(1,2-dimethyl-1H-imidazol-5-yl)(2,6-dimethylpyridin-3-yl)methanol] here?
A: 180 nM

Q: With Cc1nc2ccc(C(O)(c3ccnc(C(F)(F)F)c3)c3cncn3C)cc2c(Cl)c1Cc1ccc(C(F)(F)F)cc1 (single isomer, unassigned) [Example 30b, (4-Chloro-2-methyl-3-(4-(trifluoromethyl)benzyl)quinolin-6-yl)(1-methyl-1H-imidazol-5-yl)(2-(trifluoromethyl)pyridin-4-yl)methanol] as the molecule, how does the Kd read?
A: 300 nM

Q: How did the Kd turn out when COc1nc2ccc(C(O)(c3cnc(C)n3C)c3cnc(C)n3C)cc2c(Cl)c1Cc1ccc(F)cc1 [Example 67, (4-Chloro-3-(4-fluorobenzyl)-2-methoxyquinolin-6-yl)bis(1,2-dimethyl-1H-imidazol-5-yl)methanol] was run?
A: 0.1 nM

Q: For Cc1ccc(C(O)(c2ccc3nc(C)c(Cc4ccc(C(F)(F)F)cc4)c(Cl)c3c2)c2cnnn2C)c(C)n1 (single isomer, unassigned) [Example 28b, (4-Chloro-2-methyl-3-(4-(trifluoromethyl)benzyl)quinolin-6-yl)(2,6-dimethylpyridin-3-yl)(1-methyl-1H-1,2,3-triazol-5-yl)methanol], which Kd is on record?
A: 160 nM

Q: With COc1nc2ccc(C(O)(c3cnnn3C)C3CN(C(N)=O)C3)cc2c(Cl)c1Cc1ccc(C(F)(F)F)cc1 (centres unmarked) [Example 91, 3-((4-Chloro-2-methoxy-3-(4-(trifluoromethyl)benzyl)quinolin-6-yl)(hydroxy)(1-methyl-1H-1,2,3-triazol-5-yl)methyl)azetidine-1-carboxamide] as the molecule, how does the Kd read?
A: 0.2 nM

Q: With COc1nc2ccc(C(O)(c3ccc(C)nc3C)c3cnc(C)n3C)cc2c(Cl)c1Cc1ccc(C(F)(F)F)nc1 (single isomer, unassigned) [Example 42b, (4-Chloro-2-methoxy-3-((6-(trifluoromethyl)pyridin-3-yl)methyl)quinolin-6-yl)(1,2-dimethyl-1H-imidazol-5-yl)(2,6-dimethylpyridin-3-yl)methanol] as the molecule, how does the Kd read?
A: 970 nM

Q: For COc1nc2ccc(C(O)(c3cnc(C)n3C)c3cnc(C)n3C)cc2c(Cl)c1Cc1ccc(OC(F)(F)F)cc1 [Example 76, (4-chloro-2-methoxy-3-(4-(trifluoromethoxy)benzyl)quinolin-6-yl)bis(1,2-dimethyl-1H-imidazol-5-yl)methanol], which Kd is on record?
A: 0.03 nM

Q: Which Kd does the source give for COc1nc2ccc(C(O)(c3cnc(C)n3C)c3cnc(C)n3C)cc2c(C#N)c1Cc1ccccc1C(F)(F)F [Example 10, 6-(bis(1,2-Dimethyl-1H-imidazol-5-yl)(hydroxy)methyl)-2-methoxy-3-(2-(trifluoromethyl)benzyl)quinoline-4-carbonitrile•TFA] here?
A: 0.17 nM

Q: Cc1nc2ccc(C(O)(c3ccnc(C(F)(F)F)c3)c3cncn3C)cc2c(Cl)c1Cc1ccc(C(F)(F)F)cc1 (single isomer, unassigned) [Example 30c, (4-Chloro-2-methyl-3-(4-(trifluoromethyl)benzyl)quinolin-6-yl)(1-methyl-1H-imidazol-5-yl)(2-(trifluoromethyl)pyridin-4-yl)methanol] was tested. Which Kd did it give?
A: 0.092 nM

Q: With Cc1nc2ccc(C(O)(c3ccnc(C(F)(F)F)c3)c3cncn3C)cc2c(Cl)c1Cc1ccc(C(F)(F)F)cc1 (centres unmarked) [Example 30a, (4-Chloro-2-methyl-3-(4-(trifluoromethyl)benzyl)quinofin-6-yl)(1-methyl-1H-imidazol-5-yl)(2-(trifluoromethyl)pyridin4-yl)methanol] as the molecule, how does the Kd read?
A: 0.28 nM

Q: How did the Kd turn out when COc1nc2ccc(C(O)(c3ccc(C(F)(F)F)nc3)c3cnnn3C)cc2c(Cl)c1Cc1ccc(C(F)(F)F)cc1 (single isomer, unassigned) [Example 75c, (4-Chloro-2-methoxy-3-(4-(trifluoromethyl)benzyl)quinolin-6-yl)(1-methyl-1H-1,2,3-triazol-5-yl)(6-(trifluoromethyl)pyridin-3-yl)methanol] was run?
A: 2.5 nM

Q: Cc1ccc(C(O)(c2ccc3nc(C)c(Cc4ccc(C(F)(F)F)cc4)c(Cl)c3c2)c2cnnn2C)c(C)n1 (single isomer, unassigned) [Example 28c, (4-Chloro-2-methyl-3-(4-(trifluoromethyl)benzyl)quinolin-6-yl)(2,6-dimethylpyridin-3-yl)(1-methyl-1H-1,2,3-triazol-5-yl)methanol] was tested. Which Kd did it give?
A: 0.12 nM

Q: For CCc1nc2ccc(C(O)(c3cnc(C)n3C)C3CCOCC3)cc2c(Cl)c1Cc1ccc(C(F)(F)F)cc1 (centres unmarked) [Example 34a, (4-Chloro-2-ethyl-3-(4-(trifluoromethyl)benzyl)quinolin-6-yl)(1,2-dimethyl-1H-imidazol-5-yl)(tetrahydro-2H-pyran-4-yl)methanol], which Kd is on record?
A: 0.03 nM

Q: COCCN(C)c1nc2ccc(C(O)(c3ccc(C(F)(F)F)nc3)c3cncn3C)cc2c(Cl)c1Cc1ccc(-n2cccn2)cc1 (centres unmarked) [Example 128, {4-Chloro-2-[(2-methoxyethyl)(methyl)amino]-3-[4-(1H-pyrazol-1-yl)benzyl]quinolin-6-yl}(1-methyl-1H-imidazol-5-yl)[6-(trifluoromethyl)pyridin-3-yl]methanol] was tested. Which Kd did it give?
A: 97 nM

Q: With CCc1nc2ccc(C(O)(c3cnc(C)n3C)C3CCOCC3)cc2c(Cl)c1Cc1ccc(C(F)(F)F)cc1 (single isomer, unassigned) [Example 34c, (4-Chloro-2-ethyl-3-(4-(trifluoromethyl)benzyl)quinolin-6-yl)(1,2-dimethyl-1H-imidazol-5-yl)(tetrahydro-2H-pyran-4-yl)methanol] as the molecule, how does the Kd read?
A: 6.8 nM
